Data from ChEMBL document CHEMBL1150099, “An improved source of bryostatin 10, Bugula neritina from the Gulf of Aomori, Japan” (1995).
In brackets after ≈: the same amount, converted by molar mass. Activity calls are given as the source filed them. No cut-off for these calls is given here.

How the values were obtained:
P388 = experiment: Cytotoxicity against mouse P388 cells; assay type: functional; settings: read-out: ED50 (the source's name)
Echinoidea = experiment: Inhibition of fertilization of sea urchin egg at 1 ug/ml; assay type: functional
[1] = Inhibition of fertilized sea urchin egg cell division; assay type: functional; settings: Echinoidea, read-out: ED50 (the source's name)
Sperm = experiment: Inhibition of movement of sea urchin sperm at 1 ug/ml; assay type: functional, cell-based; settings: Echinoidea
[2] = Increase in ACTH-induced steroidogenesis in bovine adrenocortical cells measured per 10^5 cells; assay type: functional, Bos taurus

## COC(=O)/C=C1/C[C@H]2C[C@]3(O)O[C@H](C[C@@H](O)CC(=O)O[C@@H]([C@@H](C)OC(C)=O)C[C@@H]4C/C(=C/C(=O)OC)C[C@@](O)(O4)C(C)(C)/C=C/[C@@H](C1)O2)C[C@H](OC(=O)C(C)(C)C)C3(C)C
P388
  EC50: 0.44 µg/mL (≈ 0.517 µM)
Echinoidea
  inhibition: 80%

## COC(=O)/C=C1\C=C2O[C@@H](C1)C[C@H]([C@@H](C)O)OC(=O)C[C@H](O)C[C@@H]1C[C@H](OC(=O)C(C)(C)C)C(C)(C)[C@](O)(C[C@@H]3C/C(=C/C(=O)OC)C[C@H](/C=C/C2(C)C)O3)O1 [BRYOSTATIN 17]
[1]
  EC50: 0.3 µg/mL (≈ 0.379 µM)
Echinoidea
  inhibition: 100%

## CCC(=O)O[C@H](C)[C@H]1C[C@@H]2C/C(=C/C(=O)OC)C[C@@](O)(O2)C(C)(C)/C=C/[C@H]2C/C(=C\C(=O)OC)C[C@@H](C[C@]3(O)O[C@H](C[C@@H](O)CC(=O)O1)C[C@H](OC(=O)C(C)(C)C)C3(C)C)O2
P388
  EC50: 0.52 µg/mL (≈ 0.601 µM)
Echinoidea
  inhibition: 80%
Sperm
  Activity: Active

## CCCC(=O)O[C@H](C)[C@H]1C[C@@H]2C/C(=C/C(=O)OC)C[C@@](O)(O2)C(C)(C)/C=C/[C@H]2C/C(=C\C(=O)OC)C[C@@H](C[C@]3(O)O[C@H](C[C@@H](O)CC(=O)O1)C[C@H](OC(=O)C(C)(C)C)C3(C)C)O2
P388
  EC50: 0.32 µg/mL (≈ 0.364 µM)
Echinoidea
  inhibition: 80%

## COC(=O)/C=C1/C[C@H]2C[C@]3(O)O[C@H](C[C@@H](O)CC(=O)O[C@@H]([C@@H](C)O)C[C@@H]4C/C(=C\C(=O)OC)C[C@@](O)(O4)C(C)(C)/C=C/[C@@H](C1)O2)C[C@H](OC(=O)C(C)(C)C)C3(C)C [BRYOSTATIN 10]
P388
  EC50: 0.0018 µg/mL (≈ 0.00223 µM)
[1]
  EC50: 0.16 µg/mL (≈ 0.198 µM)
[2]
  Activity: 1141 pmol/h
